Measurements published in ChEMBL document CHEMBL1201862, “PubChem BioAssay data set” (2004).
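Method: 48-hour compound exposure of cells in 96-well plates, five concentrations, linear interpolation of endpoints. GI50 is the concentration that inhibits growth by half.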 Activity calls are given as the source filed them. No stated cut-off is given here; in the data, active = GI50 up to about 1.1 µM and inactive = higher.

Assays:
Experiment in all cases: NCI tumour cell line growth inhibition, 48 h
786-0 = system: 786-0
A549 = system: A549
ACHN = system: ACHN
CAKI-1 = system: CAKI-1
CCRF-CEM = system: CCRF-CEM
COLO 205 = system: COLO 205
DU-145 = system: DU-145
EKVX = system: EKVX
HCT-116 = system: HCT-116
HCT-15 = system: HCT-15
HL-60 = system: HL-60
HOP-62 = system: HOP-62
HOP-92 = system: HOP-92
HT-29 = system: HT-29
Hs-578T = system: Hs-578T
IGROV-1 = system: IGROV-1
K562 = system: K562
KM12 = system: KM12
LOX IMVI = system: LOX IMVI
M14 = system: M14
MCF7 = system: MCF7
MDA-MB-231 = system: MDA-MB-231
MDA-MB-435 = system: MDA-MB-435
MOLT-4 = system: MOLT-4
Malme-3M = system: Malme-3M
NCI-H226 = system: NCI-H226
NCI-H23 = system: NCI-H23
NCI-H460 = system: NCI-H460
NCI-H522 = system: NCI-H522
NCI/ADR-RES = system: NCI/ADR-RES
OVCAR-3 = system: OVCAR-3
OVCAR-4 = system: OVCAR-4
OVCAR-5 = system: OVCAR-5
OVCAR-8 = system: OVCAR-8
PC-3 = system: PC-3
RPMI-8226 = system: RPMI-8226
RXF 393 = system: RXF 393
SF-268 = system: SF-268
SF-295 = system: SF-295
SF-539 = system: SF-539
SK-MEL-28 = system: SK-MEL-28
SK-MEL-2 = system: SK-MEL-2
SK-MEL-5 = system: SK-MEL-5
SK-OV-3 = system: SK-OV-3
SN12C = system: SN12C
SNB-19 = system: SNB-19
SNB-75 = system: SNB-75
SR = system: SR
SW-620 = system: SW-620
T47D = system: T47D
TK-10 = system: TK-10
U-251 = system: U-251
UACC-257 = system: UACC-257
UACC-62 = system: UACC-62
UO-31 = system: UO-31

O=c1[nH]cnc2sc(=S)c3c(c12)CCC3
GI50 (786-0): 15.5 µM (inactive)
GI50 (A549): 68.7 µM (inactive)
GI50 (ACHN): 17.3 µM (inactive)
GI50 (CAKI-1): 19.3 µM (inactive)
GI50 (CCRF-CEM): 21 µM (inactive)
GI50 (COLO 205): 14.4 µM (inactive)
GI50 (DU-145): 39 µM (inactive)
GI50 (EKVX): 47.6 µM (inactive)
GI50 (HCT-116): 31.3 µM (inactive)
GI50 (HCT-15): 29 µM
GI50 (HL-60): 22.2 µM (inactive)
GI50 (HOP-62): 52.2 µM (inactive)
GI50 (HOP-92): 23.8 µM (inactive)
GI50 (HT-29): 35.2 µM (inactive)
GI50 (Hs-578T): 48.5 µM (inactive)
GI50 (IGROV-1): 15.8 µM (inactive)
GI50 (K562): 12.2 µM (inactive)
GI50 (KM12): 51.5 µM (inactive)
GI50 (LOX IMVI): 24.7 µM (inactive)
GI50 (M14): 34.2 µM (inactive)
GI50 (MCF7): > 100 µM (inactive)
GI50 (MDA-MB-231): 32.6 µM (inactive)
GI50 (MDA-MB-435): 81.8 µM (inactive)
GI50 (MOLT-4): 11.7 µM (inactive)
GI50 (Malme-3M): 37.2 µM (inactive)
GI50 (NCI-H226): 20.8 µM (inactive)
GI50 (NCI-H23): 23.5 µM (inactive)
GI50 (NCI-H460): 44.1 µM (inactive)
GI50 (NCI-H522): 15.9 µM (inactive)
GI50 (NCI/ADR-RES): 36.9 µM (inactive)
GI50 (OVCAR-3): 18.4 µM (inactive)
GI50 (OVCAR-4): 33.5 µM (inactive)
GI50 (OVCAR-5): 47.8 µM (inactive)
GI50 (OVCAR-8): 38.4 µM (inactive)
GI50 (PC-3): 37 µM (inactive)
GI50 (RPMI-8226): 18 µM (inactive)
GI50 (RXF 393): 21.9 µM (inactive)
GI50 (SF-268): > 100 µM (inactive)
GI50 (SF-295): > 100 µM (inactive)
GI50 (SF-539): > 100 µM (inactive)
GI50 (SK-MEL-28): 40.1 µM (inactive)
GI50 (SK-MEL-2): > 100 µM (inactive)
GI50 (SK-MEL-5): 17.8 µM (inactive)
GI50 (SK-OV-3): > 100 µM (inactive)
GI50 (SN12C): > 100 µM (inactive)
GI50 (SNB-19): 48.5 µM (inactive)
GI50 (SNB-75): > 100 µM (inactive)
GI50 (SR): 12.1 µM (inactive)
GI50 (SW-620): 21.6 µM (inactive)
GI50 (T47D): 19.1 µM (inactive)
GI50 (TK-10): 25.2 µM (inactive)
GI50 (U-251): > 100 µM (inactive)
GI50 (UACC-257): 33.3 µM (inactive)
GI50 (UACC-62): 40.9 µM (inactive)
GI50 (UO-31): 25.8 µM (inactive)
